The numbers were not newly measured in US8324158B2, “Methods for inhibiting CLC-2 channel with GATX2” (Georgia Tech Research Corporation, priority 2006, dated 2012), which cites them from elsewhere.

The target of the data set is ClC-1 (Homo sapiens, UniProt P35523).
Sequence of ClC-1 (P35523 whole entry, species assumed): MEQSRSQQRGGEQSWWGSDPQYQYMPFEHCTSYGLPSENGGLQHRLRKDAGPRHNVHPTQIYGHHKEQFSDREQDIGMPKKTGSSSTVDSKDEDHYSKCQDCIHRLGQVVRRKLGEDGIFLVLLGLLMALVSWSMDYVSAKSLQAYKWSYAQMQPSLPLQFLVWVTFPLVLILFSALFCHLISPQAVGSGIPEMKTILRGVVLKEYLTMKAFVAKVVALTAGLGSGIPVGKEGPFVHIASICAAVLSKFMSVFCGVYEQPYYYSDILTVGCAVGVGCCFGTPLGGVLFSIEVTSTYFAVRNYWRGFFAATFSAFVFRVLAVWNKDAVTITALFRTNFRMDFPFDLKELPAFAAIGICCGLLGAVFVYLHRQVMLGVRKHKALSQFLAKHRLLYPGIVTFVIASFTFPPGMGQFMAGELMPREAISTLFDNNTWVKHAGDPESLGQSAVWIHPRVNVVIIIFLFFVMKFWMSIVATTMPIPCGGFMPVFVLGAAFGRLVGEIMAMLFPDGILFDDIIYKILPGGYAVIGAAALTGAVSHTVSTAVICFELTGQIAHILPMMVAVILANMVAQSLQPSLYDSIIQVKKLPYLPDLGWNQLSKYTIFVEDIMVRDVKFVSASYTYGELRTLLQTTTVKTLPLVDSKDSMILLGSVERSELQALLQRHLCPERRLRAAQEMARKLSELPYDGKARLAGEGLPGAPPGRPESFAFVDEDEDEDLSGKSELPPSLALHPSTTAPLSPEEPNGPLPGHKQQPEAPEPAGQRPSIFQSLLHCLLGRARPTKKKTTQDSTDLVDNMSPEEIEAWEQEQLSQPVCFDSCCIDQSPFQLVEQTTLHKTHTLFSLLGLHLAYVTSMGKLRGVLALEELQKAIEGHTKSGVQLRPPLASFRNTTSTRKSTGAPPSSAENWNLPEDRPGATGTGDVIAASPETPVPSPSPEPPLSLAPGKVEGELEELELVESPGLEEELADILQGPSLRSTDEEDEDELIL

Consider `CC(Oc1ccc(Cl)cc1)C(=O)O` (stereo not shown) [CPP], for which the dissociation constant Kd is 15 µM.
